Key:
[1] = xn = mol fraction of the nth substance listed; details: Liquid, Vibrating tube method, x2 = 0
[2] = Liquid, Vibrating tube method

O [water] + OCCNCCO
[1]
Details	mass density [kg/m3]
323.15 K, 100 kPa	988
328.15 K, 100 kPa	985.7
333.15 K, 100 kPa	983.2
338.15 K, 100 kPa	980.5
343.15 K, 100 kPa	977.7
348.15 K, 100 kPa	974.8
353.15 K, 100 kPa	971.8
358.15 K, 100 kPa	968.6
363.15 K, 100 kPa	965.3
373.15 K, 700 kPa	958.6
383.15 K, 700 kPa	951.2
393.15 K, 700 kPa	943.4
403.15 K, 700 kPa	935.1
413.15 K, 700 kPa	926.3
423.15 K, 700 kPa	917.1

OCCNCCO [diethanolamine]
[2]
Details	mass density [kg/m3]
298.15 K, 100 kPa	1093.6
303.15 K, 100 kPa	1090.4
308.15 K, 100 kPa	1087.1
313.15 K, 100 kPa	1083.8
318.15 K, 100 kPa	1080.6
323.15 K, 100 kPa	1077.4
328.15 K, 100 kPa	1074.1
333.15 K, 100 kPa	1070.8
338.15 K, 100 kPa	1067.4
343.15 K, 100 kPa	1064
348.15 K, 100 kPa	1060.6
353.15 K, 100 kPa	1057.2
358.15 K, 100 kPa	1053.7
363.15 K, 100 kPa	1050.1
373.15 K, 700 kPa	1043.3
383.15 K, 700 kPa	1035.5
393.15 K, 700 kPa	1028.1
403.15 K, 700 kPa	1020.5
413.15 K, 700 kPa	1012.9
423.15 K, 700 kPa	1004.8

CN(CCO)CCO [N-methyldiethanolamine]
[2]
Details	mass density [kg/m3]
298.15 K, 100 kPa	1036
303.15 K, 100 kPa	1032.4
308.15 K, 100 kPa	1028.6
313.15 K, 100 kPa	1024.8
318.15 K, 100 kPa	1021
323.15 K, 100 kPa	1017.2
328.15 K, 100 kPa	1013.3
333.15 K, 100 kPa	1009.4
338.15 K, 100 kPa	1005.6
343.15 K, 100 kPa	1001.7
348.15 K, 100 kPa	997.7
353.15 K, 100 kPa	993.8
358.15 K, 100 kPa	989.9
363.15 K, 100 kPa	985.9
373.15 K, 700 kPa	978.6
383.15 K, 700 kPa	970.3
393.15 K, 700 kPa	962.1
403.15 K, 700 kPa	953.9
413.15 K, 700 kPa	945.6
423.15 K, 700 kPa	937

O [water] + CN(CCO)CCO
[1]
Details	mass density [kg/m3]
323.15 K, 100 kPa	988
328.15 K, 100 kPa	985.7
333.15 K, 100 kPa	983.2
338.15 K, 100 kPa	980.5
343.15 K, 100 kPa	977.7
348.15 K, 100 kPa	974.8
353.15 K, 100 kPa	971.8
358.15 K, 100 kPa	968.6
363.15 K, 100 kPa	965.3
373.15 K, 700 kPa	958.6
383.15 K, 700 kPa	951.2
393.15 K, 700 kPa	943.4
403.15 K, 700 kPa	935.1
413.15 K, 700 kPa	926.3
423.15 K, 700 kPa	917.1

— the NIST ThermoML archive (doi:10.1021/je300345m)
